Measured values reported in US20130317215A1, “STABLE SYNTHETIC INTERMEDIATE AND METHOD FOR MANUFACTURING SAME” (KYORIN PHARMACEUTICAL CO., LTD., priority 2010, published 2013).
“Also recorded” adds a separate entry of the source.

What was measured:
[1] = Change in physical properties during storage at room temperature (Test Example 1); type: physicochemical; conditions: for Physical properties, after 10 weeks: sealed in a glass bottle, stored at room temperature for 10 weeks
From the text: The compound (5) was sealed in a glass bottle and stored at room temperature for 10 weeks. The compound (6) was sealed in a glass bottle and stored at room temperature for 19 months.

[2] = Storage stability at room temperature, chemical purity by HPLC (Test Example 2); type: physicochemical
Description: The compounds (5) and (6) were each sealed in a glass bottle and stored at room temperature. At this time, the chemical purity of each compound was measured. After 6 weeks of storage and after 10 weeks of storage, the compound (5) was measured. After 19 months of storage, the compound (6) was measured. The chemical purity was represented by proportions of each compound and a degraded substance (compound (8)), calculated from area ratios measured by HPLC. HPLC measurement conditions are shown below. The chemical purity of the compound (6) was calculated on the basis of the peak of the compound (5).
Measurement wavelength: 220 nm
Column: TSKgel Octyl-80Ts, 4.6 mm I.D.×150 mm
Column temperature: 40° C.
Mobile phase A: acetonitrile
Mobile phase B: diluted phosphoric acid (1→1,000)

Structure (SMILES): CCc1cc(OC)cc(N)c1C(=O)O [Compound (5)]
- Physical properties, in synthesis ([1]; compound (5), before storage): WHITE POWDER
- Physical properties, after 10 weeks [1]: YELLOW SEMI-SOLID
- Physical properties, after 10 weeks ([1]; listed as compound (5)): the physical properties were changed; also recorded: yellow semi-solid
- Proportion of the compound degraded ([2]; after 10 weeks of storage at room temperature): ≥ 50%
- HPLC purity, peak Compound (5), after 6 weeks ([2]; sealed glass bottle, room temperature, 6 weeks, HPLC area ratio): 94.1%
- HPLC purity, peak Compound (5), after 10 weeks ([2]; sealed glass bottle, room temperature, 10 weeks, HPLC area ratio): 38.4%
